Measured values from patent publication US10611740B2, “Aryl dihydro-2H-benzo[b][1,4]oxazine sulfonamide and related compounds for use as agonists of RORγ and the treatment of disease” (Lycera Corporation, priority 2015, dated 2020).

Experiments:
RORγ-LBD = biological target: T1, RORγ-LBD (Homo sapiens, UniProt P51449); experiment: RORγ-Ligand Binding Domain (LBD) TR-FRET Assay; assay type: biochemical;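 for TR-FRET Assay Max Response: 665/615 nm ratio relative to signal without ursolic acid or compound set at 100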
T1 construct: made in house; host or cells: SF9 cells (baculovirus)
T1 sequence (P51449 269-508 limits assumed): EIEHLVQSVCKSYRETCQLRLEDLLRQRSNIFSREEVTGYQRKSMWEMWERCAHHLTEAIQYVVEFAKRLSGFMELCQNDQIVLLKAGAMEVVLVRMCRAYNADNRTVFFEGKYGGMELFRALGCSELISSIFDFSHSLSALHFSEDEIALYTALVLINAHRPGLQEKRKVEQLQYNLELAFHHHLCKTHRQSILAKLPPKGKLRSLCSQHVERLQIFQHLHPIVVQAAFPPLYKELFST
Procedure, shortened: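 SF9 lysate containing His-RORγ-LBD, ~3 nM final; coactivator peptide biotin-SRC1 LXXLL, 200 nM final; ursolic acid 2 μM final; DMSO 1% final; Tris pH 7.0 buffer with KCl, EDTA, DTT, BSA. TR-FRET format.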

Gal4-RORγ-LBD = biological target: T2, Gal4-RORγ-LBD (Homo sapiens, UniProt P51449); experiment: Gal4-RORγ Luciferase Reporter Assay in HEK-293T Cells; assay type: cell-based; settings: HEK-293 cells, 2 μM ursolic acid
T2 construct: expressed in transfected cells; host or cells: HEK-293 cells (pcDNA3.1neo plasmid)
T2 sequence (P51449 269-508 limits assumed): T1 sequence (P51449 269-508 limits assumed)
Procedure, shortened: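 In transfected HEK-293 cells (Gal4-RORγ-LBD, Gal4-luciferase), test agents with 2 μM ursolic acid were incubated overnight at 37 °C before luminescent detection. Values are relative to the ursolic-acid-free, compound-free signal (100).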

Structure (SMILES): O=C(O)C1(C[C@H]2CN(S(=O)(=O)c3cccc(C(F)(F)F)c3)c3cc(-c4cc(F)cc(OC(F)F)c4)ccc3O2)CCOCC1 [Compound 58, (S)-4-((6-(3-(difluoromethoxy)-5-fluorophenyl)-4-((3-(trifluoromethyl)phenyl)sulfonyl)-3,4-dihydro-2H-benzo[b][1,4]oxazin-2-yl)methyl)tetrahydro-2H-pyran-4-carboxylic acid]
- EC50 (RORγ-LBD): < 500 nM
- TR-FRET Assay Max Response (RORγ-LBD): *** (The symbol “***” indicates a value in the range of greater than 150 to 200)
- EC50 (Gal4-RORγ-LBD): < 500 nM
- Gal4-RORγ Assay Max Response (Gal4-RORγ-LBD): ** (The symbol “**” indicates a value in the range of greater than 90 to 150)

Structure (SMILES): O=C(O)[C@H]1C[C@H](C[C@H]2CN(S(=O)(=O)c3cccc(C(F)(F)F)c3)c3cc(-c4cc(F)cc(OC(F)F)c4)ccc3O2)C1 [Compound 59, (1S,3r)-3-(((S)-6-(3-(difluoromethoxy)-5-fluorophenyl)-4-((3-(trifluoromethyl)phenyl)sulfonyl)-3,4-dihydro-2H-benzo[b][1,4]oxazin-2-yl)methyl)cyclobutane-1-carboxylic acid]
- EC50 (RORγ-LBD): < 500 nM
- TR-FRET Assay Max Response (RORγ-LBD): *** (The symbol “***” indicates a value in the range of greater than 150 to 200)
- EC50 (Gal4-RORγ-LBD): < 500 nM
- Gal4-RORγ Assay Max Response (Gal4-RORγ-LBD): ** (The symbol “**” indicates a value in the range of greater than 90 to 150)

Structure (SMILES): O=C(O)[C@H]1C[C@H](C[C@H]2CN(S(=O)(=O)c3cccc(C(F)(F)F)c3)c3cc(-c4cc(F)ccc4F)ccc3O2)C1 [Compound 60A, (1S,3r)-3-(((S)-6-(2,5-difluoro-phenyl)-4-((3-(trifluoromethyl)-phenyl)sulfonyl)-3,4-dihydro-2H-benzo[b][1,4]oxazin-2-yl)methyl)cyclobutane-1-carboxylic acid]
- EC50 (RORγ-LBD): < 500 nM
- TR-FRET Assay Max Response (RORγ-LBD): *** (The symbol “***” indicates a value in the range of greater than 150 to 200)
- EC50 (Gal4-RORγ-LBD): < 500 nM
- Gal4-RORγ Assay Max Response (Gal4-RORγ-LBD): ** (The symbol “**” indicates a value in the range of greater than 90 to 150)

Structure (SMILES): O=C(O)[C@H]1C[C@H](C[C@H]2CN(S(=O)(=O)c3cccc(C(F)(F)F)c3)c3cc(-c4cc(F)cc(F)c4Cl)ccc3O2)C1 [Compound 60B, (1S,3r)-3-(((S)-6-(2-chloro-3,5-difluorophenyl)-4-((3-(trifluoro-methyl)phenyl)sulfonyl)-3,4-dihydro-2H-benzo[b][1,4]oxazin-2-yl)methyl)cyclobutane-1-carboxylic acid]
- EC50 (RORγ-LBD): < 500 nM
- TR-FRET Assay Max Response (RORγ-LBD): *** (The symbol “***” indicates a value in the range of greater than 150 to 200)
- EC50 (Gal4-RORγ-LBD): < 500 nM
- Gal4-RORγ Assay Max Response (Gal4-RORγ-LBD): ** (The symbol “**” indicates a value in the range of greater than 90 to 150)

Structure (SMILES): O=C(O)[C@H]1C[C@H](C[C@H]2CN(S(=O)(=O)c3cccc(C(F)(F)F)c3)c3cc(-c4cccc(C(F)(F)F)n4)ccc3O2)C1 [Compound 60C, (1S,3r)-3-(((S)-4-((3-(trifluoro-methyl)phenyl)sulfonyl)-6-(6-(trifluoromethyl)pyridin-2-yl)-3,4-dihydro-2H-benzo[b][1,4]-oxazin-2-yl)methyl)cyclobutane-1-carboxylic acid]
- EC50 (RORγ-LBD): < 500 nM
- TR-FRET Assay Max Response (RORγ-LBD): ** (The symbol “**” indicates a value in the range of greater than 90 to 150)
- EC50 (Gal4-RORγ-LBD): < 500 nM
- Gal4-RORγ Assay Max Response (Gal4-RORγ-LBD): ** (The symbol “**” indicates a value in the range of greater than 90 to 150)

Structure (SMILES): CC(=O)N[C@H]1C[C@H](C[C@H]2CN(S(=O)(=O)c3cccc(C(F)(F)F)c3)c3cc(-c4cc(F)cc(OC(F)F)c4)ccc3O2)C1 [Compound 60D, N-((1S,3r)-3-(((S)-6-(3-(difluoro-methoxy)-5-fluoro-phenyl)-4-((3-(trifluoro-methyl)-phenyl)sulfonyl)-3,4-dihydro-2H-benzo[b][1,4]-oxazin-2-yl)methyl)cyclo-butyl)-acetamide]
- EC50 (RORγ-LBD): < 500 nM
- TR-FRET Assay Max Response (RORγ-LBD): *** (The symbol “***” indicates a value in the range of greater than 150 to 200)
- EC50 (Gal4-RORγ-LBD): < 500 nM
- Gal4-RORγ Assay Max Response (Gal4-RORγ-LBD): * (The symbol “*” indicates a value in the range of 25 to 90)

Structure (SMILES): CC(=O)N[C@H]1C[C@H](C[C@H]2CN(S(=O)(=O)c3cccc(C(F)(F)F)c3)c3cc(-c4cc(F)ccc4F)ccc3O2)C1 [Compound 60E, N-((1S,3r)-3-(((S)-6-(2,5-difluorophenyl)-4-((3-(trifluoro-methyl)phenyl)sulfonyl)-3,4-dihydro-2H-benzo[b][1,4]oxazin-2-yl)methyl)cyclobutyl)-acetamide]
- EC50 (RORγ-LBD): < 500 nM
- TR-FRET Assay Max Response (RORγ-LBD): *** (The symbol “***” indicates a value in the range of greater than 150 to 200)
- EC50 (Gal4-RORγ-LBD): < 500 nM
- Gal4-RORγ Assay Max Response (Gal4-RORγ-LBD): ** (The symbol “**” indicates a value in the range of greater than 90 to 150)

Structure (SMILES): C[C@]1(C(=O)O)C[C@H](C[C@H]2CN(S(=O)(=O)c3cccc(C(F)(F)F)c3)c3cc(-c4cccc(C(F)(F)F)n4)ccc3O2)C1 [Compound 60N, (1S,3r)-1-methyl-3-(((S)-4-((3-(trifluoromethyl)phenyl)-sulfonyl)-6-(6-(trifluoro-methyl)pyridin-2-yl)-3,4-dihydro-2H-benzo[b][1,4]-oxazin-2-yl)methyl)cyclobutane-1-carboxylic acid]
- EC50 (RORγ-LBD): < 500 nM
- TR-FRET Assay Max Response (RORγ-LBD): ** (The symbol “**” indicates a value in the range of greater than 90 to 150)
- EC50 (Gal4-RORγ-LBD): < 500 nM
- Gal4-RORγ Assay Max Response (Gal4-RORγ-LBD): ** (The symbol “**” indicates a value in the range of greater than 90 to 150)

Structure (SMILES): CC1(C(=O)O)CC(C[C@H]2CN(S(=O)(=O)c3cccc(C(F)(F)F)c3)c3cc(-c4cccc(C(F)(F)F)n4)ccc3O2)C1 (stereo partly drawn) [Compound 60O, (1R,3s)-1-methyl-3-(((S)-4-((3-(trifluoromethyl)phenyl)-sulfonyl)-6-(6-(trifluoro-methyl)pyridin-2-yl)-3,4-dihydro-2H-benzo[b][1,4]-oxazin-2-yl)methyl)cyclobutane-1-carboxylic acid]
- EC50 (RORγ-LBD): < 500 nM
- TR-FRET Assay Max Response (RORγ-LBD): *** (The symbol “***” indicates a value in the range of greater than 150 to 200)
- EC50 (Gal4-RORγ-LBD): < 500 nM
- Gal4-RORγ Assay Max Response (Gal4-RORγ-LBD): ** (The symbol “**” indicates a value in the range of greater than 90 to 150)

Structure (SMILES): CC(=O)N1CC(C[C@H]2CN(S(=O)(=O)c3cccc(C(F)(F)F)c3)c3cc(-c4cc(F)cc(OC(F)F)c4)ccc3O2)C1 [Compound 61, (S)-1-(3-((6-(3-(difluoromethoxy)-5-fluorophenyl)-4-((3-(trifluoromethyl)phenyl)sulfonyl)-3,4-dihydro-2H-benzo[b][1,4]oxazin-2-yl)methyl)azetidin-1-yl)ethan-1-one]
- EC50 (RORγ-LBD): < 500 nM
- TR-FRET Assay Max Response (RORγ-LBD): *** (The symbol “***” indicates a value in the range of greater than 150 to 200)
- EC50 (Gal4-RORγ-LBD): < 500 nM
- Gal4-RORγ Assay Max Response (Gal4-RORγ-LBD): ** (The symbol “**” indicates a value in the range of greater than 90 to 150)

Structure (SMILES): CC(=O)N1CC(C[C@H]2CN(S(=O)(=O)c3cccc(C(F)(F)F)c3)c3cc(-c4cc(F)ccc4F)ccc3O2)C1 [Compound 62, (S)-1-(3-((6-(2,5-difluorophenyl)-4-((3-(trifluoromethyl)phenyl)sulfonyl)-3,4-dihydro-2H-benzo[b][1,4]oxazin-2-yl)methyl)azetidin-1-yl)ethan-1-one]
- EC50 (RORγ-LBD): < 500 nM
- TR-FRET Assay Max Response (RORγ-LBD): ** (The symbol “**” indicates a value in the range of greater than 90 to 150)
- EC50 (Gal4-RORγ-LBD): < 500 nM
- Gal4-RORγ Assay Max Response (Gal4-RORγ-LBD): ** (The symbol “**” indicates a value in the range of greater than 90 to 150)

Structure (SMILES): O=C(O)[C@]1(C[C@H]2CN(S(=O)(=O)c3cccc(C(F)(F)F)c3)c3cc(-c4cc(F)cc(OC(F)F)c4)ccc3O2)CCNC1=O [Compound 73, (S)-3-(((S)-6-(3-(difluoromethoxy)-5-fluorophenyl)-4-((3-(trifluoromethyl)phenyl)sulfonyl)-3,4-dihydro-2H-benzo[b][1,4]oxazin-2-yl)methyl)-2-oxopyrrolidine-3-carboxylic acid]
- EC50 (RORγ-LBD): < 500 nM
- TR-FRET Assay Max Response (RORγ-LBD): *** (The symbol “***” indicates a value in the range of greater than 150 to 200)
- EC50 (Gal4-RORγ-LBD): < 500 nM
- Gal4-RORγ Assay Max Response (Gal4-RORγ-LBD): ** (The symbol “**” indicates a value in the range of greater than 90 to 150)

Structure (SMILES): O=C(O)[C@@]1(C[C@H]2CN(S(=O)(=O)c3cccc(C(F)(F)F)c3)c3cc(-c4cc(F)cc(OC(F)F)c4)ccc3O2)CCNC1=O [Compound 74, (R)-3-(((S)-6-(3-(difluoromethoxy)-5-fluorophenyl)-4-((3-(trifluoromethyl)phenyl)sulfonyl)-3,4-dihydro-2H-benzo[b][1,4]oxazin-2-yl)methyl)-2-oxopyrrolidine-3-carboxylic acid]
- EC50 (RORγ-LBD): < 500 nM
- TR-FRET Assay Max Response (RORγ-LBD): ** (The symbol “**” indicates a value in the range of greater than 90 to 150)
- EC50 (Gal4-RORγ-LBD): < 500 nM
- Gal4-RORγ Assay Max Response (Gal4-RORγ-LBD): ** (The symbol “**” indicates a value in the range of greater than 90 to 150)

Structure (SMILES): O=C1CC[C@@](C[C@H]2CN(S(=O)(=O)c3cccc(C(F)(F)F)c3)c3cc(-c4cc(F)ccc4F)ccc3O2)(C(=O)O)N1 [Compound 75, (R)-2-(((S)-6-(2,5-difluorophenyl)-4-((3-(trifluoromethyl)phenyl)sulfonyl)-3,4-dihydro-2H-benzo[b][1,4]oxazin-2-yl)methyl)-5-oxopyrrolidine-2-carboxylic acid]
- EC50 (RORγ-LBD): < 500 nM
- TR-FRET Assay Max Response (RORγ-LBD): ** (The symbol “**” indicates a value in the range of greater than 90 to 150)
- EC50 (Gal4-RORγ-LBD): 5000 to 10000 nM
- Gal4-RORγ Assay Max Response (Gal4-RORγ-LBD): *** (The symbol “***” indicates a value in the range of greater than 150 to 200)
